Several values for one entry are separate records, joined by “and”; a condition that tells them apart may be missing. Equal entries are not always repeated. Toxic doses and inconclusive results are not listed.
Test system: L1210 leukemia ip in BDF1 mice, survival T/C
Test: NCI In Vivo Anticancer Drug Screen. Data for tumor model L1210 Leukemia (intraperitoneal) in B6D2F1 (BDF1) mice
Settings: endpoint: mean survival time, higher = longer survival
In short: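 Antitumor effect is assessed in tumor-bearing animals. Survival in the compound arm is compared with a vehicle-dosed control arm and expressed as their quotient.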

[1] = dose: 50.0 mg/kg/injection, schedule: Q01DX001 (ip), vehicle: Klucel (hydroxypropylcellulose) (HPC)
[2] = dose: 100.0 mg/kg/injection, schedule: Q01DX001 (ip), vehicle: Klucel (hydroxypropylcellulose) (HPC)
[3] = dose: 100.0 mg/kg/injection, schedule: Q01DX009 (ip), vehicle: Klucel (hydroxypropylcellulose) (HPC)
[4] = dose: 200.0 mg/kg/injection, schedule: Q01DX009 (ip), vehicle: Klucel (hydroxypropylcellulose) (HPC)
[5] = dose: 400.0 mg/kg/injection, schedule: Q01DX009 (ip), vehicle: Klucel (hydroxypropylcellulose) (HPC)
[6] = dose: 100.0 mg/kg/injection, schedule: Q04DX003 (ip), vehicle: Klucel (hydroxypropylcellulose) (HPC)
[7] = dose: 200.0 mg/kg/injection, schedule: Q04DX003 (ip), vehicle: Klucel (hydroxypropylcellulose) (HPC)
[8] = dose: 400.0 mg/kg/injection, schedule: Q04DX003 (ip), vehicle: Klucel (hydroxypropylcellulose) (HPC)

In the case of `CC1(C)C2CCC1(C)C(N=C(N)CSS(=O)(=O)O)C2` (stereo not given), the T/C (dose: 12.5 mg/kg/injection, schedule: Q04DX002 (ip), vehicle: Klucel (hydroxypropylcellulose) (HPC)) is reported as 112 % of control, the T/C (dose: 25.0 mg/kg/injection, schedule: Q01DX001 (ip), vehicle: Klucel (hydroxypropylcellulose) (HPC)) is reported as 101 % of control and the T/C (dose: 25.0 mg/kg/injection, schedule: Q04DX002 (ip), vehicle: Klucel (hydroxypropylcellulose) (HPC)) is reported as 98 % of control. The T/C [1] was 98 % of control and the T/C [2] was 87 % of control.
`Cc1c2oc3c(C)ccc(C(=O)OCCN4CCCCC4)c3nc-2c(C(=O)OCCN2CCCCC2)c(N)c1=O` was tested, and the T/C (dose: 100.0 mg/kg/injection, schedule: Q04DX002 (ip), vehicle: saline with Tween-80) was 113 % of control and the T/C (dose: 200.0 mg/kg/injection, schedule: Q04DX002 (ip), vehicle: saline with Tween-80) was 98 % of control.
In the case of `COCCOC(=O)Cc1cccc2ccccc12`, the T/C (dose: 222.0 mg/kg/injection, schedule: Q01DX Z (ip), vehicle: saline) is reported as 90 % of control, the T/C (dose: 333.0 mg/kg/injection, schedule: Q01DX Z (ip), vehicle: saline) is reported as 100 % of control and the T/C (dose: 500.0 mg/kg/injection, schedule: Q01DX Z (ip), vehicle: saline) is reported as 110 % of control.
In the case of `Cc1ccc(S(=O)(=O)NN=C2CCS(=O)CC2)cc1` (stereo not given), the T/C [3] is reported as 90 % of control, the T/C [4] is reported as 97 % of control and the T/C [5] is reported as 94 % of control.
`C=C1CC[N+]2(CCCCCC)CCCC12` (stereo not given) was tested, and the T/C (dose: 6.25 mg/kg/injection, schedule: Q01DX009 (ip), vehicle: saline) was 97 % of control, the T/C (dose: 12.5 mg/kg/injection, schedule: Q01DX009 (ip), vehicle: saline) was 91 % of control and the T/C (dose: 25.0 mg/kg/injection, schedule: Q01DX009 (ip), vehicle: saline) was 103 % of control.
In the case of `CC(CNC(=O)CCOS(C)(=O)=O)NC(=O)CCOS(C)(=O)=O` (stereo not given), the T/C (dose: 22.0 mg/kg/injection, schedule: Q01DX Z (ip), vehicle: carboxymethylcellulose (CMC)) is reported as 104 % of control, the T/C (dose: 33.0 mg/kg/injection, schedule: Q01DX Z (ip), vehicle: carboxymethylcellulose (CMC)) is reported as 111 % of control and the T/C (dose: 50.0 mg/kg/injection, schedule: Q01DX Z (ip), vehicle: carboxymethylcellulose (CMC)) is reported as 100 % of control and 113 % of control. For the same compound, the T/C (dose: 76.0 mg/kg/injection, schedule: Q01DX Z (ip), vehicle: carboxymethylcellulose (CMC)) was 107 % of control, the T/C (dose: 113.0 mg/kg/injection, schedule: Q01DX Z (ip), vehicle: carboxymethylcellulose (CMC)) was 153 % of control and the T/C (dose: 170.0 mg/kg/injection, schedule: Q01DX Z (ip), vehicle: carboxymethylcellulose (CMC)) was 113 % of control.
In the case of `C(=C\c1cnc2ccccc2n1)/c1ccc2c(c1)OCO2`, the T/C [3] is reported as 89 % of control, the T/C [6] is reported as 95 % of control and the T/C [4] is reported as 92 % of control. The T/C [7] was 91 % of control, the T/C [5] was 97 % of control and the T/C [8] was 93 % of control.
`C#CC(C)(C)CC(=O)O` was tested, and the T/C (dose: 100.0 mg/kg/injection, schedule: Q04DX003 (ip), vehicle: saline with Tween-80) was 98 % of control, the T/C (dose: 200.0 mg/kg/injection, schedule: Q04DX003 (ip), vehicle: saline with Tween-80) was 95 % of control and the T/C (dose: 400.0 mg/kg/injection, schedule: Q04DX003 (ip), vehicle: saline with Tween-80) was 92 % of control.
For `c1ccc2c(c1)ccc1oc3ccc4ccccc4c3c12`, the T/C (dose: 18.75 mg/kg/injection, schedule: Q04DX003 (ip), vehicle: Klucel (hydroxypropylcellulose) (HPC)) was 97 % of control, the T/C (dose: 37.5 mg/kg/injection, schedule: Q04DX003 (ip), vehicle: Klucel (hydroxypropylcellulose) (HPC)) was 97 % of control and 98 % of control and the T/C (dose: 75.0 mg/kg/injection, schedule: Q04DX003 (ip), vehicle: Klucel (hydroxypropylcellulose) (HPC)) was 101 % of control and 103 % of control. The T/C [6] was 103 % of control, the T/C (dose: 150.0 mg/kg/injection, schedule: Q04DX003 (ip), vehicle: Klucel (hydroxypropylcellulose) (HPC)) was 104 % of control and the T/C [7] was 97 % of control. For the same compound, the T/C [8] was 101 % of control.
In the case of `CSc1cc(C(=O)O)nc(SC)n1`, the T/C (dose: 100.0 mg/kg/injection, schedule: Q01DX Z (ip), vehicle: methylcellulose (MC)) is reported as 97 % of control.
`CCCCCCCCCCCCCCCCCC(=O)N1C(=O)c2ccccc2C1=O` was tested, and the T/C (dose: 100.0 mg/kg/injection, schedule: Q01DX001 (ip), vehicle: other) was 87 % of control, the T/C (dose: 200.0 mg/kg/injection, schedule: Q01DX001 (ip), vehicle: other) was 88 % of control and the T/C (dose: 400.0 mg/kg/injection, schedule: Q01DX001 (ip), vehicle: other) was 92 % of control.
For `COC(=O)CC(C(=O)OC)C(=O)OC`, the T/C (dose: 75.0 mg/kg/injection, schedule: Q01DX001 (ip), vehicle: Klucel (hydroxypropylcellulose) (HPC)) was 105 % of control, the T/C (dose: 75.0 mg/kg/injection, schedule: Q01DX009 (ip), vehicle: Klucel (hydroxypropylcellulose) (HPC)) was 97 % of control and the T/C (dose: 150.0 mg/kg/injection, schedule: Q01DX001 (ip), vehicle: Klucel (hydroxypropylcellulose) (HPC)) was 103 % of control. For the same compound, the T/C (dose: 150.0 mg/kg/injection, schedule: Q01DX009 (ip), vehicle: Klucel (hydroxypropylcellulose) (HPC)) was 105 % of control, the T/C (dose: 300.0 mg/kg/injection, schedule: Q01DX001 (ip), vehicle: Klucel (hydroxypropylcellulose) (HPC)) was 90 % of control and the T/C (dose: 300.0 mg/kg/injection, schedule: Q01DX009 (ip), vehicle: Klucel (hydroxypropylcellulose) (HPC)) was 105 % of control.
`C/C(=N\N1CCCCCC1)c1ccccc1` was tested, and the T/C (dose: 100.0 mg/kg/injection, schedule: Q01DX009 (sc), vehicle: olive oil, sesame oil, peanut oil) was 95 % of control, the T/C (dose: 100.0 mg/kg/injection, schedule: Q04DX003 (sc), vehicle: olive oil, sesame oil, peanut oil) was 112 % of control and the T/C (dose: 200.0 mg/kg/injection, schedule: Q01DX009 (sc), vehicle: olive oil, sesame oil, peanut oil) was 98 % of control. The T/C (dose: 200.0 mg/kg/injection, schedule: Q04DX003 (sc), vehicle: olive oil, sesame oil, peanut oil) was 105 % of control, the T/C (dose: 400.0 mg/kg/injection, schedule: Q01DX009 (sc), vehicle: olive oil, sesame oil, peanut oil) was 97 % of control and the T/C (dose: 400.0 mg/kg/injection, schedule: Q04DX003 (sc), vehicle: olive oil, sesame oil, peanut oil) was 105 % of control.
With `CNC(=O)Nc1ccc(Cl)cc1C` the T/C [3] was 98 % of control, the T/C [6] was 96 % of control and the T/C [4] was 102 % of control. The T/C [7] was 96 % of control and the T/C [8] was 106 % of control.
`COc1ccc(-c2nc(-c3cccc(O)c3)[nH]c2-c2ccc(OC)cc2)cc1` was tested, and the T/C (dose: 100.0 mg/kg/injection, schedule: Q01DX009 (ip), vehicle: saline with Tween-80) was 93 % of control, the T/C (dose: 200.0 mg/kg/injection, schedule: Q01DX009 (ip), vehicle: saline with Tween-80) was 98 % of control and the T/C (dose: 400.0 mg/kg/injection, schedule: Q01DX009 (ip), vehicle: saline with Tween-80) was 105 % of control.
`Cc1ccc(N=Nc2ccc(C)cc2NC(=O)c2ccc(Cl)c(Cl)c2)cc1` was tested, and the T/C (dose: 100.0 mg/kg/injection, schedule: Q04DX002 (ip), vehicle: Klucel (hydroxypropylcellulose) (HPC)) was 120 % of control, the T/C (dose: 200.0 mg/kg/injection, schedule: Q04DX002 (ip), vehicle: Klucel (hydroxypropylcellulose) (HPC)) was 103 % of control and the T/C (dose: 400.0 mg/kg/injection, schedule: Q04DX002 (ip), vehicle: Klucel (hydroxypropylcellulose) (HPC)) was 97 % of control.
With `O=C(OCC(O)C1OC(COC(=O)c2ccccc2)C1O)c1ccccc1` (stereo not given) the T/C (dose: 100.0 mg/kg/injection, schedule: Q01DX001 (ip), vehicle: saline with Tween-80) was 101 % of control, the T/C (dose: 200.0 mg/kg/injection, schedule: Q01DX001 (ip), vehicle: saline with Tween-80) was 97 % of control and the T/C (dose: 400.0 mg/kg/injection, schedule: Q01DX001 (ip), vehicle: saline with Tween-80) was 97 % of control.
For `O=C(Cc1ccc(Cl)cc1)N/N=C/c1ccc([N+](=O)[O-])s1`, the T/C (dose: 100.0 mg/kg/injection, schedule: Q04DX003 (ip), vehicle: saline) was 93 % of control, the T/C (dose: 200.0 mg/kg/injection, schedule: Q04DX003 (ip), vehicle: saline) was 93 % of control and the T/C (dose: 400.0 mg/kg/injection, schedule: Q04DX003 (ip), vehicle: saline) was 90 % of control.
For `COc1ccccc1-n1c(=O)c(N=Nc2ccccc2C)c(O)n(-c2ccccc2Cl)c1=S`, the T/C [1] was 107 % of control, the T/C [2] was 102 % of control and the T/C (dose: 200.0 mg/kg/injection, schedule: Q01DX001 (ip), vehicle: Klucel (hydroxypropylcellulose) (HPC)) was 110 % of control.
For `Cc1nc2ccccc2cc1C#N`, the T/C (dose: 100.0 mg/kg/injection, schedule: Q01DX001 (ip), vehicle: carboxymethylcellulose (CMC)) was 118 % of control, the T/C (dose: 200.0 mg/kg/injection, schedule: Q01DX001 (ip), vehicle: carboxymethylcellulose (CMC)) was 118 % of control and the T/C (dose: 400.0 mg/kg/injection, schedule: Q01DX001 (ip), vehicle: carboxymethylcellulose (CMC)) was 108 % of control.
`CCCCc1nc2c(c(=O)n(C)c(=O)n2C)n1C` was tested, and the T/C (dose: 50.0 mg/kg/injection, schedule: Q01DX001 (ip), vehicle: saline) was 96 % of control, the T/C (dose: 100.0 mg/kg/injection, schedule: Q01DX001 (ip), vehicle: saline) was 96 % of control and the T/C (dose: 200.0 mg/kg/injection, schedule: Q01DX001 (ip), vehicle: saline) was 102 % of control.

From PubChem BioAssay AID248 (DTP/NCI, 2004)
